One data set deals with T1, full-length His6-JMJD6 (Homo sapiens, UniProt Q6NYC1).
T1 construct: An enzyme mixture (10 μL) containing full-length His6-JMJD6 (5 μM; final concentration: 0.05 μM); made in house; host or cells: Escherichia coli BL21 (DE3), pET-28a(+) plasmid
Put plainly: SPE-MS kinetics of JMJD6-catalysed lysyl hydroxylation (2OG, Fe(II), LAA, BRD-derived peptides). The format is biochemical. To be noted: 50 nM JMJD6, 2OG 200 μM, FAS 2 μM, BRD4_511–550 2 μM, LAA varied, Tris pH 7.5; n = 3. As to the method: Recombinant human JMJD6 (full length with a N-terminal His6-tag) was produced in Escherichia coli BL21 (DE3) cells using a pET-28a(+) plasmid and purified by standard Ni(II)-affinity size-exclusion chromatography, as previously reported.[40] […] Purified JMJD6 was stored at −78 °C; fresh aliquots were used for all JMJD6 assays.
Peptides were used as 10 mM stock solutions in DMSO (Sigma-Aldrich; BioUltra grade).
(§1) Assay samples were aspirated under vacuum for 0.4 s, then loaded onto a C4 solid phase extraction (SPE) cartridge. After loading, the C4 SPE cartridge was washed with 0.1%v/v aqueous formic acid to remove non-volatile buffer salts (5 s, 1.5 mL min^−1). The peptide was eluted from the SPE cartridge with 0.1%v/v aqueous formic acid in 75/25v/v acetonitrile/water into the mass spectrometer (5 s, 1.6 mL min^−1) and the SPE cartridge re-equilibrated with 0.1%v/v aqueous formic acid (1 s, 1.25 mL min^−1).
Peaks corresponding to the m/z +5 charge states of the BRD-derived substrate peptide and the hydroxylated product peptides were extracted from the ion chromatogram and integrated using RapidFire Integrator 4.3.0 (Agilent). Peak area data were exported into Microsoft Excel and used to calculate the relative abundance of the mono-hydroxylated product peptide using the following equation: […]
The concentration of the mono-hydroxylated product peptide was calculated by multiplying the %-fraction of the mono-hydroxylated product peptide by the initial concentration of the substrate peptide employed in the assay. Initial reaction velocities were then calculated and fitted to a Michaelis–Menten plot using nonlinear regression (GraphPad Prism 5).

A short description of data set [1]: retention on SPE cartridges. In kind it is physicochemical. The settings on record: SR protein fragments; SPE cartridges; attributed to high basicity.
Source text: as §1, with “The JMJD6-catalysed hydroxylation of the BRD-derived substrate peptide was monitored at ambient temperature by SPE-MS using a RapidFire RF 365 high-throughput sampling robot (Agilent) attached to an iFunnel Agilent 6550 accurate mass quadrupole time-of-flight (Q-TOF) mass spectrometer, which was operated in the positive ionization mode. Assay” for “Assay”

The subject of another data set is His6-JMJD6_1–362. The settings on record: MALDI-TOF MS; His6-JMJD6_1–362 (10 μM), 2OG (500 μM); cited from earlier work.

“Also recorded” adds a separate entry of the source.

On to `O=C1O[C@H]([C@@H](O)CO)C(O)=C1O` [LAA, L-ascorbic acid], for which the “effect of LAA addition on JMJD6 catalysis” value at full-length His6-JMJD6 was “beneficial effect on JMJD6 catalysis; also recorded: not essential for productive JMJD6 catalysis; also recorded: significantly enhanced levels of JMJD6 catalysis”.

As for NPKRSRSREHRR [LUC7L2_267–278], in data set [1], the “retention on SPE cartridges” value was “poor retention on SPE cartridges”. In addition, in the data set with His6-JMJD6_1–362, the K m was 51.0 ± 4.6 µM, the k cat is 0.011 s⁻¹ and the “k cat/Km” value was 220 M⁻¹ s⁻¹.

As to RSKKRKKSKSRS [RBM39_31–42], in data set [1], the “retention on SPE cartridges” value was “poor retention on SPE cartridges”. Also, in the data set on His6-JMJD6_1–362, the K m is 56.0 ± 9.6 µM, the k cat is 0.028 s⁻¹ and the “k cat/Km” value was 400 M⁻¹ s⁻¹.

For RSKSPRRRRSHSR [SRSF11_286–298], in data set [1], the “retention on SPE cartridges” value is reported as “poor retention on SPE cartridges”. Further, in the data set with His6-JMJD6_1–362, the K m is 41.0 ± 6.6 µM, the k cat was 0.008 s⁻¹ and the “k cat/Km” value is 200 M⁻¹ s⁻¹.

For SRDHKRSRSRERRRS [CROP311–325], the “retention on SPE cartridges” value in data set [1] is listed as “poor retention on SPE cartridges”. Besides, in the data set on His6-JMJD6_1–362, the K m was 71.0 ± 7.2 µM, the k cat is 0.019 s⁻¹ and the “k cat/Km” value is 270 M⁻¹ s⁻¹.

Turning to SRSRSRDRKRRSRSRDR [U2AF65_30–46], the “retention on SPE cartridges” value in data set [1] was “poor retention on SPE cartridges”. In addition, in the data set with His6-JMJD6_1–362, the K m was 78.0 ± 15.0 µM, the k cat was 0.009 s⁻¹ and the “k cat/Km” value was 120 M⁻¹ s⁻¹.

Values taken from publication PMC11878239, “Biochemical investigations using mass spectrometry to monitor JMJD6-catalysed hydroxylation of multi-lysine containing bromodomain-derived substrates” (RSC Chemical Biology, 2025).
